Publication PMC10548452 (Journal of medicinal chemistry, 2021)
Read-outs that look alike come from different tables or passages of the source.

Assays:
CCR5 (HOS-CCR5 cells) = CCR5 (HOS-CCR5 cells) (Homo sapiens, UniProt P51681); assay: Calcium mobilization assay in HOS-CCR5 cells; type: cell-based; conditions: for CCR5 activation (agonism) in Ca2+ mobilization assay: within the range of concentrations tested
[1] = tested on: HIV-1BaL Env-pseudotyped Luc-expressing virus; type: cell-based; conditions: PHA-stimulated PBMCs; opioid 10 nM
GHOST CCR5 cells = assay: Cytotoxicity; conditions: GHOST CCR5 cells; XTT; triplicate
HIV-1BaL [2] = assay: Anti-HIV-1BaL activity; conditions: GHOST CCR5 cells
HIV = conditions: primary human astrocytes, cited from earlier work
[3] = tested on: HIV-1BaL Env-pseudotyped Luc-expressing virus (HIV-1-Luc); assay: HIV-1-Luc infection assay in nonstimulated PBMCs; type: cell-based; conditions: 1000 nM
[4] = target: mouse mu opioid receptor (mMOR-CHO) (Mus musculus, UniProt P42866); assay: Calcium mobilization assay in mMOR-CHO cells; type: cell-based; conditions: agonist mode, varying concentrations
Cytotoxicity = conditions: human
HIV-1BaL [5] = assay: HIV-1BaL infection assay in OPRM1- or control plasmid-transfected TZM-bl cells; type: cell-based; conditions: Human immunodeficiency virus 1, TZM-bl, read-out: Inhibition of HIV-1BaL infection EC50, TZM-bl cells containing only control plasmid
[6] = target: rhesus macaque CCR5 expressed in Chem-1 cells (Macaca mulatta, UniProt P61813); assay: CCR5 competitive radioligand binding assay
[7] = target: mouse MOR expressed in CHO cell lines (mMOR-CHO) (Mus musculus, UniProt P42866); assay: MOR competitive radioligand binding assay; conditions: ratio of Ki values vs VZMC001
CCR5 (Macaca mulatta) = CCR5 (Macaca mulatta) (UniProt P61813); assay: radioligand binding; conditions: cited from earlier work

CCR5 (HOS-CCR5 cells), sequence (P51681 whole entry): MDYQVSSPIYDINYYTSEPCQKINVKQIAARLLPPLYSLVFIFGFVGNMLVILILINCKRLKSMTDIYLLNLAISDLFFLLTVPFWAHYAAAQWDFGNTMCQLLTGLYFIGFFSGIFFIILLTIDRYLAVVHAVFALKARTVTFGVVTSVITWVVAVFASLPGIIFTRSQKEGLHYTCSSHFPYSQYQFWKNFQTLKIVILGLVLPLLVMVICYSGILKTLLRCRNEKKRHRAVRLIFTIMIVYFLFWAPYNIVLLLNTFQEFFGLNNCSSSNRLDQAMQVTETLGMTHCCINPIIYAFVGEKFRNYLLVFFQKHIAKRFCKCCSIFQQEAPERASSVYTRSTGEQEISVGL
mouse mu opioid receptor (mMOR-CHO), sequence (P42866 whole entry): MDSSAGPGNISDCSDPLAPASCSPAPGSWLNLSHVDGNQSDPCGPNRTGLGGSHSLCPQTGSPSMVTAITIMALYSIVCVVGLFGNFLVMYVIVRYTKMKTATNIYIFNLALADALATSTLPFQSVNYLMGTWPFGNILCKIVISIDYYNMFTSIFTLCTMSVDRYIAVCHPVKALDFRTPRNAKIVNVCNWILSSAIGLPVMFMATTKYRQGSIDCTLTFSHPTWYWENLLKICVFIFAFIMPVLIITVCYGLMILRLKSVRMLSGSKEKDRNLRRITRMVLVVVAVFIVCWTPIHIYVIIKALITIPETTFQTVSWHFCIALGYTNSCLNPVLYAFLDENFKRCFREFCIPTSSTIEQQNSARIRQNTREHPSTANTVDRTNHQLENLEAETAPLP
mouse MOR expressed in CHO cell lines (mMOR-CHO), sequence (P42866 whole entry): as above
MIP-1α, sequence (P10147 27-92): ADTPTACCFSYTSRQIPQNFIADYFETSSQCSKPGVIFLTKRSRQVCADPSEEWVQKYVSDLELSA

**Q.** Which IC50 (CCR5 (HOS-CCR5 cells)) does the source give for CNC(=O)COCC(=O)NCCCCCCCNC(=O)COCC(=O)NCCc1nnc(C(C)C)n1[C@@H]1C[C@H]2CC[C@@H](C1)N2CC[C@H](NC(=O)C1CCC(F)(F)CC1)c1ccccc1 [VZMC014] here?
**A.** 116 nM

**Q.** What about the “CCR5 activation (agonism) in Ca2+ mobilization assay” value (CCR5 (HOS-CCR5 cells); agonist mode) of the same compound?
**A.** none of these compounds appeared to activate CCR5

**Q.** Which “effect on HIV expression” value [1] does the source give for C[C@@H](NC(=O)[C@@H](N)Cc1ccc(O)cc1)C(=O)NCC(=O)N(C)[C@@H](Cc1ccccc1)C(=O)NCCO [DAMGO, [D-Ala^2-MePhe^4-Gly(ol)^5]enkephalin] here?
**A.** remarkable increases in HIV expression

**Q.** What does the source list for Cc1nnc(C(C)C)n1C1C[C@H]2CC[C@@H](C1)N2CC[C@H](NC(=O)C1CCC(F)(F)CC1)c1ccc(NC(=O)COCC(=O)NCCCCCCCNC(=O)COCC(=O)N[C@@H]2CC[C@@]3(O)[C@H]4Cc5ccc(O)c6c5[C@@]3(CCN4CC3CC3)[C@H]2O6)cc1 (some centres unmarked) [VZMC001, reference compound]?
**A.** Cytotoxicity TC50 (GHOST CCR5 cells): >100000 nM; RT activity (HIV-1BaL [2]; concentrations up to 100 μM, 0 μM defined as 100%): 107.6–226.1%; fold higher inhibition of HIV entry than maraviroc (HIV; with morphine): 7 fold; fold higher inhibition of HIV entry than maraviroc (HIV; without morphine): 3.3 fold

**Q.** Which EC50 (CCR5 (HOS-CCR5 cells); read-out: Ca2+ mobilization agonism EC50, agonist mode, HOS-CCR5 cells with Gqi5) does the source give for “CCL5: C─C motif chemokine ligand 5, CCR5 agonist control [reference compound]” here?
**A.** 155 ± 6.58 nM

**Q.** For CC(C)c1nnc(CCNC(=O)COCC(=O)NCCCCCCCNC(=O)COCC(=O)N[C@@H]2CC[C@@]3(O)[C@H]4Cc5ccc(O)c6c5[C@@]3(CCN4CC3CC3)[C@H]2O6)n1C1C[C@H]2CC[C@@H](C1)N2CC[C@H](NC(=O)C1CCC(F)(F)CC1)c1ccccc1 (some centres unmarked) [VZMC013], which “Inhibition of HIV-1-Luc infectivity” value [3] is on record?
**A.** nearly complete blockade

**Q.** And the “agonism in Ca2+ mobilization assay” value [4]?
**A.** No agonism was observed

**Q.** What about the “Cytotoxicity TC50” value (GHOST CCR5 cells) of the same compound?
**A.** >100000 nM

**Q.** And the viability at 6 days, 100 µM (Cytotoxicity)?
**A.** ~100%

**Q.** And the EC50 (HIV-1BaL [5])?
**A.** 610 nM

**Q.** What about the “fold greater CCR5 binding affinity than monovalent VZMC014” value ([6]; ratio of Ki values vs VZMC014) of the same compound?
**A.** 12 fold

**Q.** What about the “TI (therapeutic index, TC50/EC50)” value (HIV-1BaL [2]) of the same compound?
**A.** >1075

**Q.** What about the “CCR5 activation (agonism) in Ca2+ mobilization assay” value (CCR5 (HOS-CCR5 cells); agonist mode) of the same compound?
**A.** none of these compounds appeared to activate CCR5

**Q.** And the “fold more potent than VZMC001 in inhibiting CCL5-stimulated Ca2+ mobilization” value (CCR5 (HOS-CCR5 cells); ratio of IC50 values vs VZMC001)?
**A.** 2.2 fold

**Q.** What about the “fold higher MOR binding affinity than VZMC001” value [7] of the same compound?
**A.** 8.6 fold

**Q.** For MIP-1α (from UniProt P10147), which Kd (CCR5 (Macaca mulatta)) is on record?
**A.** 0.31 nM

**Q.** With CC(C)c1nnc(CCNC(=O)COCC(=O)NCCCCCNC(=O)COCC(=O)N[C@@H]2CC[C@@]3(O)[C@H]4Cc5ccc(O)c6c5[C@@]3(CCN4CC3CC3)[C@H]2O6)n1C1C[C@H]2CC[C@@H](C1)N2CC[C@H](NC(=O)C1CCC(F)(F)CC1)c1ccccc1 (some centres unmarked) [VZMC019] as the compound, how does the IC50 [6] read?
**A.** > 10000 nM
